According to the supplement of paper PMC10307832:

Experiments:
Assay in all cases: relative viability (nuclei count vs DMSO), 5 days (fraction); higher = more cells survive
CX-5461 + Foretinib = compound: Cc1cnc(CNC(=O)c2c(=O)c3ccc(N4CCCN(C)CC4)nc3n3c2sc2ccccc23)cn1 [CX-5461] + COc1cc2c(Oc3ccc(NC(=O)C4(C(=O)Nc5ccc(F)cc5)CC4)cc3F)ccnc2cc1OCCCN1CCOCC1 [Foretinib] (partner 0.25 µM)
Summary of the method: (§1)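 Five library-drug doses in √10 steps were combined with a fixed anchor-drug dose, or a single drug was given alone, by pin tool to lung cancer cell lines in 1536-well plates the day after seeding. Nuclei were stained and counted after 5 days. Relative viability is the nuclei count in treated wells over that in vehicle wells, taken as the median of duplicate plates.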

CX-5461 + Lapatinib = compound: Cc1cnc(CNC(=O)c2c(=O)c3ccc(N4CCCN(C)CC4)nc3n3c2sc2ccccc23)cn1 [CX-5461] + CS(=O)(=O)CCNCc1ccc(-c2ccc3ncnc(Nc4ccc(OCc5cccc(F)c5)c(Cl)c4)c3c2)o1 [Lapatinib] (partner 2 µM)
Summary of the method: as §1

IMD-0354 + AZD7762 = compound: O=C(Nc1cc(C(F)(F)F)cc(C(F)(F)F)c1)c1cc(Cl)ccc1O [IMD-0354] + NC(=O)Nc1cc(-c2cccc(F)c2)sc1C(=O)N[C@H]1CCCNC1 [AZD7762] (partner 0.2 µM)
Summary of the method: as §1

IMD-0354 + OSI-027 = compound: O=C(Nc1cc(C(F)(F)F)cc(C(F)(F)F)c1)c1cc(Cl)ccc1O [IMD-0354] + COc1cccc2cc(-c3nc([C@H]4CC[C@H](C(=O)O)CC4)n4ncnc(N)c34)[nH]c12 [OSI-027] (partner 0.5 µM)
Summary of the method: as §1

Cell Line	relative viability (CX-5461 + Foretinib; first compound 0.01 µM)	relative viability (CX-5461 + Foretinib; first compound 0.03162 µM)	relative viability (CX-5461 + Foretinib; first compound 0.1 µM)	relative viability (CX-5461 + Foretinib; first compound 0.3162 µM)	relative viability (CX-5461 + Foretinib; first compound 1 µM)	relative viability (CX-5461 + Lapatinib; first compound 0.01 µM)	relative viability (CX-5461 + Lapatinib; first compound 0.03162 µM)	relative viability (CX-5461 + Lapatinib; first compound 0.1 µM)	relative viability (CX-5461 + Lapatinib; first compound 0.3162 µM)	relative viability (CX-5461 + Lapatinib; first compound 1 µM)	relative viability (IMD-0354 + AZD7762; first compound 0.04 µM)	relative viability (IMD-0354 + AZD7762; first compound 0.1265 µM)	relative viability (IMD-0354 + AZD7762; first compound 0.4 µM)	relative viability (IMD-0354 + AZD7762; first compound 1.265 µM)	relative viability (IMD-0354 + AZD7762; first compound 4 µM)	relative viability (IMD-0354 + OSI-027; first compound 0.04 µM)	relative viability (IMD-0354 + OSI-027; first compound 0.1265 µM)	relative viability (IMD-0354 + OSI-027; first compound 1.265 µM)	relative viability (IMD-0354 + OSI-027; first compound 4 µM)	relative viability (IMD-0354 + OSI-027; first compound 0.4 µM)
201T	1.06	1.05	1.04	1.08	0.74	1.01	1.06	1.03	0.82	0.981	0.511	0.616	0.392	0.657	0.214	0.596	0.882	0.553	0.175	–
A549	1.01	0.883	0.948	0.987	0.385	0.989	1.04	0.698	0.867	0.0911	–	–	–	–	–	–	–	–	–	–
A-427	1.12	1.2	1.13	–	1.04	1.06	0.999	1.04	–	0.908	1.01	0.827	0.585	0.14	0.202	0.66	0.459	0.127	0.135	0.288
ABC-1	0.909	0.91	0.651	–	0.585	1.17	1.32	1.04	–	1.05	1.26	0.98	0.522	0.257	0.331	0.517	0.331	0.207	0.23	0.369
BEN	0.781	0.606	0.739	0.525	0.636	0.77	0.647	0.821	0.487	0.54	0.715	0.793	0.487	0.334	0.347	0.306	0.301	0.311	0.195	0.264
CAL-12T	1.03	1.08	0.966	0.945	0.741	0.697	0.673	0.486	0.247	0.617	0.655	0.744	0.357	0.261	0.32	0.807	0.463	0.193	0.17	0.385
COR-L23	0.997	1.09	0.881	0.774	0.597	1.08	0.833	0.674	0.804	0.414	–	–	–	–	–	0.767	0.679	0.145	0.178	0.397
COR-L 105	1.13	1.05	1.11	0.813	0.549	0.363	0.405	0.376	0.265	0.267	–	–	–	–	–	0.812	0.697	0.363	0.23	0.533
Calu-6	0.837	0.925	0.807	0.844	0.698	1.04	1.16	0.964	0.998	0.405	–	–	–	–	–	–	–	–	–	–
ChaGo-K-1	0.927	0.981	0.917	0.597	0.883	–	–	–	–	–	0.912	0.937	0.596	0.218	0.254	0.725	0.514	0.269	0.232	0.384
